Results as given in patent publication US10092537B2, “Use for PAI-1 inhibitor” (RENASCIENCE CO., LTD., priority 2013, dated 2018).

Legend:
[1] = system: CML cells (32Dp210-GFP cells); experiment: Chronic myelogenous leukemia model mice, imatinib and compound c (Experimental Example 12); assay type: in vivo; conditions: imatinib 150 mg/kg/day alone
Experimental: Chronic myelogenous leukemia model mice prepared in the same manner as in Experimental Example 11 were divided into the following 3 groups (each group: n=10), and the groups were administered respective test drugs in accordance with the protocol shown in FIG. 15A.
(§1) Group 1: placebo group (physiological saline was administered via gavage)
(§2) Group 2: imatinib group (imatinib [150 mg/kg/day] was administered via gavage)
(§3) Group 3: imatinib+compound c group (imatinib [150 mg/kg/day] and compound c [10 mg/kg/day] were administered via gavage)
(§4) 8 days (day 8) after the day on which CML cells (32Dp210-GFP cells) were intravenously inoculated (day 0), administration of the test drugs to the groups was started. The placebo group and the imatinib group were administered the respective test drugs once a day from day 8 to day 14 (7 doses in total). The imatinib+compound c group was administered imatinib once a day from day 8 to day 14 (7 doses in total), and also administered compound c once a day from day 8 to day 14 (7 doses in total).

[2] = system: CML cells; experiment: Chronic myelogenous leukemia model mice, imatinib, PAI-1 inhibitor and G-CSF neutralizing antibody (Experimental Example 14); assay type: in vivo
Experimental: In this experiment, whether G-CSF is involved in the effect was examined. Compound a was used as a PAI-1 inhibitor.
as §1
Group 2: IM group (imatinib [150 mg/kg/day] was administered via gavage)
Group 3: IM+anti-G-CSF group (imatinib [150 mg/kg/day] was administered via gavage, G-CSF neutralizing antibody [500 μg/kg/day] was subcutaneously administered)
Group 4: IM+TM group (imatinib [150 mg/kg/day] and compound a [100 mg/kg/day] were administered via gavage)
Group 5: IM+TM+anti-G-CSF group (imatinib [150 mg/kg/day] and compound a [100 mg/kg/day] were administered via gavage, and G-CSF neutralizing antibody [500 μg/kg/day] was subcutaneously administered)
The day on which CML cells were inoculated was set as day 0, and each test drug was administered from day 8 to day 14 (7 doses in total).

[3] = system: CML cells; experiment: Chronic myelogenous leukemia model mice, imatinib with compound d or compound e (Experimental Example 17); assay type: in vivo; conditions: imatinib 150 mg/kg/day alone
Experimental: as §1, §2
Group 3: imatinib+compound d group (imatinib [150 mg/kg/day] and compound d [10 mg/kg/day] were administered via gavage)
Group 4: imatinib+compound e group (imatinib [150 mg/kg/day] and compound e [10 mg/kg/day] were administered via gavage)
8 days after (day 8) the day (day 0) on which CML cells were intravenously inoculated, administration of test drugs to the groups was started. The placebo group and the imatinib group were administered the respective test drugs once a day from day 8 to day 14 (7 doses in total). The imatinib+compound d group and imatinib+compound e group were administered imatinib once a day from day 8 to day 14 (7 doses in total), and also administered compound d or e once a day from day 8 to day 14 (7 doses in total).

[4] = system: CML cells (32Dp210-GFP cells); experiment: Chronic myelogenous leukemia model mice, imatinib and compound a (Experimental Example 11); assay type: in vivo, C3H/HeJ mice; conditions: imatinib 150 mg/kg/day alone
Experimental: p210(BCR-ABL) gene was inserted into a MIGR1 vector, and GFP cDNA was further incorporated as a reporter gene downstream of the gene (hereinafter, the vector is referred to as “p210-GFP”). p210-GFP was infected with 32D cells (C3H/HeJ mice cell line), and chronic myelogenous leukemia (hereinafter, referred to as “CML”) cells were prepared. 2.5×10^5 of the thus-obtained CML cells (32Dp210(BCR-ABL)-GFP cells, hereinafter, referred to as “32Dp210-GFP cells”) were intravenously administered into the retro-orbital plexus of C3H/HeJ mice. 7 to 10 days after the transplantation, the abundance ratio of GFP cells in the peripheral blood was analyzed, and mice with more than 3% of abundance ratio were used as chronic myelogenous leukemia model mice in the following experiments.
15 chronic myelogenous leukemia model mice prepared by using the procedure described above were divided into the following 3 groups (each group: n=15), and a test drug was administered to the mice in accordance with the protocol shown in FIG. 15A.
as §1, §2
Group 3: imatinib+compound a group (imatinib [150 mg/kg/day] and compound a [100 mg/kg/day] were administered via gavage)
(§5) 10 days (day 10) after the day on which CML cells were intravenously inoculated (day 0), administration of test drugs to the groups was started. The placebo group and the imatinib group were administered the respective test drugs once a day from day 10 to day 16 (7 doses in total). The imatinib+compound a group was administered imatinib once a day from day 10 to day 16 (7 doses in total), and also administered compound a once a day from day 10 to day 14 (5 doses in total).
As described above, 32Dp210-GFP includes GFP as a reporter gene, and thus, the CML cells having 32Dp210-GFP inserted (32Dp210-GFP cells) are GFP-positive. Therefore, using FACS (FACS (BD Biosciences: FACSCalibur), the frequency of CML cells (32Dp210-GFP cells) in mononucleic cells of the bone marrow and spleen was measured and compared between the imatinib group and the imatinib+compound a group.

[5] = system: CML cells; experiment: Chronic myelogenous leukemia model mice, CML cells engrafted onto bone marrow by FACS (Experimental Example 15); assay type: in vivo
Experimental: Chronic myelogenous leukemia model mice prepared in accordance with the procedure of Experimental Example 11 (1) were divided into 3 groups (each group: n=15) and administered respective test drugs.
as §1, §2, §3
as §4, with “cells” for “cells (32Dp210-GFP cells)”, “of” for “of the”
CML cells engrafted onto bone marrow were analyzed by FACS immediately before the administration of a test drug (day 8; “immediately before antitumor agent treatment” in FIG. 19), immediately after the completion of administration of a test drug (day 14; “immediately after antitumor agent treatment” in FIG. 19), and day 28 from the start of administration of a test drug (day 36; “after 28 days” in FIG. 19). […] About 50% leukemia cells were grafted on the bone marrow immediately before administration of a test drug (day 8; “immediately before antitumor agent treatment” in FIG. 19). After the tumor-bearing mice were administered a test drug 7 times (day 14), the proportion of CML cells was analyzed. […] All of the mice in the group administered physiological saline died.

[6] = system: CML cells; experiment: Chronic myelogenous leukemia model mice, compound a alone, imatinib, combination (Experimental Example 16); assay type: in vivo; conditions: imatinib 150 mg/kg/day alone
Experimental: as §1
Group 2: compound a group (compound a [100 mg/kg/day] was administered via gavage)
Group 3: imatinib group (imatinib [150 mg/kg/day] was administered via gavage)
Group 4: imatinib+compound a group (imatinib [150 mg/kg/day] and compound a [100 mg/kg/day] were administered via gavage)
as §5, with “days after” for “days”, “10)” for “10) after”, “placebo group, the compound a group,” for “placebo group”, “day 16 (7” for “day 14 (5”

Q: For `Cc1ccc(NC(=O)c2ccc(CN3CCN(C)CC3)cc2)cc1Nc1nccc(-c2cccnc2)n1` [imatinib, reference compound], which survival [1] is on record?
A: all of the mice died by day 35

Q: What about the median survival period ([1]; placebo 15.5 days) of the same compound?
A: 23.5 days

Q: What about the median survival period ([2]; IM group: imatinib 150 mg/kg/day alone, placebo 15 days) of the same compound?
A: 22 days

Q: And the survival ([2]; IM group: imatinib alone)?
A: all of the mice died by day 30

Q: And the survival ([2]; IM+anti-G-CSF group)?
A: all of the mice died by day 30

Q: And the median survival period ([2]; IM+anti-G-CSF group: imatinib 150 mg/kg/day + G-CSF neutralizing antibody 500 μg/kg/day)?
A: 23 days

Q: What about the survival [3] of the same compound?
A: all of the mice died by day 40

Q: And the “frequency of 32Dp210-GFP cells in bone-marrow mononucleic cells” value [4]?
A: about 55%

Q: And the “frequency of CML cells (32Dp210-GFP cells) in the spleen” value [4]?
A: about 76%

Q: And the survival [4]?
A: all of the mice died by day 40

Q: And the median survival period ([4]; placebo 14 days)?
A: 27 days

Q: What about the “CML (leukemia) cells in the bone marrow” value ([5]; imatinib 150 mg/kg/day alone, day 8 to day 14, analysed day 36) of the same compound?
A: 55.5%

Q: What about the “proportion of CML cells in the bone marrow” value ([5]; imatinib alone, day 14, after 7 doses, about 50% before treatment) of the same compound?
A: marked decrease

Q: And the survival [6]?
A: all of the mice died by day 40
